Test results from PMC8185074, “Anchor extension: a structure-guided approach to design cyclic peptides targeting enzyme active sites” (Nature Communications, 2021).
Peptide text beside a SMILES is read from it.

What was measured:
Type in all cases: biochemical
[1] = molecular target: T1, HDAC1 (Homo sapiens, UniProt Q13547); experiment: HDAC1 inhibition, full IC50 measurement (Reaction Biology; fluorogenic p53 peptide RHKK(Ac)AMC); conditions: t1/t2 replicates
T1 construct: purchased Reaction Biology Corporation (assay run by the CRO)
Method in brief: (§1)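 The reaction was a 1 h, 30 °C incubation of enzyme, acoustically added peptide and 50 μM p53-derived AMC substrate in pH 8.0 Tris buffer with NaCl, KCl, MgCl2, 1 mg/ml BSA and 1% DMSO. Duplicate values were averaged.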

[2] = molecular target: T2, HDAC2 (Homo sapiens, UniProt Q92769); experiment: HDAC2 inhibition, full IC50 measurement (Reaction Biology; fluorogenic p53 peptide RHKK(Ac)AMC)
T2 construct: purchased Reaction Biology Corporation (assay run by the CRO)
Method in brief: as §1

[3] = molecular target: T3, HDAC8 (Homo sapiens, UniProt Q9BY41); experiment: HDAC8 inhibition, full IC50 measurement (Reaction Biology; fluorogenic p53 peptide RHKK(Ac)AMC); conditions: t1/t2 replicates
T3 construct: purchased Reaction Biology Corporation (assay run by the CRO)
T3 sequence (Q9BY41 1-377): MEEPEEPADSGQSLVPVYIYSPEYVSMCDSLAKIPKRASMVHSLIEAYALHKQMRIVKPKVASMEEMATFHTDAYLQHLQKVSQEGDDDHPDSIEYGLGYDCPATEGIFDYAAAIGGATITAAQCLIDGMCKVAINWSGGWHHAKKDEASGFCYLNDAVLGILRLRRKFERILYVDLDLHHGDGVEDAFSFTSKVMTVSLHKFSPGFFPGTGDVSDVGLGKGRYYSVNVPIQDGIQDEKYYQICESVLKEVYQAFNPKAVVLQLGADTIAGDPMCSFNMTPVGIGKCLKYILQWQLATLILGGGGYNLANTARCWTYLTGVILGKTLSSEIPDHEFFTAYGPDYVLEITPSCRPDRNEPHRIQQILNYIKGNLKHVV
Method in brief: as §1

[4] = peptide conc. 1.00E-05 M, listed as des2.1.1_t1
[5] = peptide conc. 1.00E-05 M, listed as des2.1.1_t2
[6] = peptide conc. 1.11E-06 M, listed as des2.1.1_t1
[7] = peptide conc. 1.11E-06 M, listed as des2.1.1_t2
[8] = peptide conc. 1.23E-07 M, listed as des2.1.1_t1
[9] = peptide conc. 1.23E-07 M, listed as des2.1.1_t2
[10] = peptide conc. 1.37E-08 M, listed as des2.1.1_t1
[11] = peptide conc. 1.37E-08 M, listed as des2.1.1_t2
[12] = peptide conc. 1.52E-09 M, listed as des2.1.1_t1
[13] = peptide conc. 1.52E-09 M, listed as des2.1.1_t2
[14] = peptide conc. 3.33E-06 M, listed as des2.1.1_t1
[15] = peptide conc. 3.33E-06 M, listed as des2.1.1_t2
[16] = peptide conc. 3.70E-07 M, listed as des2.1.1_t1
[17] = peptide conc. 3.70E-07 M, listed as des2.1.1_t2
[18] = peptide conc. 4.12E-08 M, listed as des2.1.1_t1
[19] = peptide conc. 4.12E-08 M, listed as des2.1.1_t2
[20] = peptide conc. 4.57E-09 M, listed as des2.1.1_t1
[21] = peptide conc. 4.57E-09 M, listed as des2.1.1_t2
[22] = peptide conc. 5.08E-10 M, listed as des2.1.1_t1
[23] = peptide conc. 5.08E-10 M, listed as des2.1.1_t2

T1 sequence (Q13547 whole entry): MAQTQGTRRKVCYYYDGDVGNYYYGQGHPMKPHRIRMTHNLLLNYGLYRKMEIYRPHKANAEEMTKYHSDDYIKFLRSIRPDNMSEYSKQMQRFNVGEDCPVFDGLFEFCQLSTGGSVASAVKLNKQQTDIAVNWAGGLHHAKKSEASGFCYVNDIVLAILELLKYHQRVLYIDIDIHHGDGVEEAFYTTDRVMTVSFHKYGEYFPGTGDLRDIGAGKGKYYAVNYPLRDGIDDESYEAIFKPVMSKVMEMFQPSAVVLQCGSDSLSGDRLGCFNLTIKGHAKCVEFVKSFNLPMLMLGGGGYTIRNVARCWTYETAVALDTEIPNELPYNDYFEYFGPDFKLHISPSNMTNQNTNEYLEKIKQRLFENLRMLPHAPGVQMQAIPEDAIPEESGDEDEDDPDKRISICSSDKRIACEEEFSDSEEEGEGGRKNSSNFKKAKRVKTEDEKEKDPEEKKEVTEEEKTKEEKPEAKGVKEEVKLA
T2 sequence (Q92769 whole entry): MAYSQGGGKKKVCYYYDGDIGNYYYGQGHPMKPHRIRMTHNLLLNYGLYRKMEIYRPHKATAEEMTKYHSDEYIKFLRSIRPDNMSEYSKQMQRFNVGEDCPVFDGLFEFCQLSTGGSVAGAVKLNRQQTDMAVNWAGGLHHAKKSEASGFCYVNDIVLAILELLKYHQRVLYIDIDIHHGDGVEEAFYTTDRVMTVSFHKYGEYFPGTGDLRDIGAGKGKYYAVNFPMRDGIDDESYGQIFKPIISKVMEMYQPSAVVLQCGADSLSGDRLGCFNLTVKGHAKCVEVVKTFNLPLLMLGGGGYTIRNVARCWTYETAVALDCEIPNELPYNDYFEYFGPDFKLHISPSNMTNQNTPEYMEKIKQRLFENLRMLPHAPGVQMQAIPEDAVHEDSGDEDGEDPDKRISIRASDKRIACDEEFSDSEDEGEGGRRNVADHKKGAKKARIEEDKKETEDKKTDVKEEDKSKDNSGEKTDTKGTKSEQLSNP

CSCC[C@H]1NC(=O)[C@@H](CO)NC(=O)[C@H](CC(N)=O)NC(=O)[C@H](CC(=O)O)NC(=O)[C@@H]([C@H](C)O)NC(=O)[C@H](Cc2c[nH]c3ccccc23)NC(=O)[C@H](CCCCCS)NC(=O)[C@H](CCCCN)NC(=O)[C@@H](CC(=O)O)NC1=O [des2.1.1, SHA-Trp-dThr-Asp-Asn-dSer-dMet-dAsp-Lys] (HELM PEPTIDE1{D.N.[dS].[dM].[dD].K.[O=C([C@H](CCCCCS)N[*:1])[*:2]].W.[dT]}$PEPTIDE1,PEPTIDE1,1:R1-9:R2$$$V2.0)
HDAC1 activity raw data (signal) [1, 4]: -3296
HDAC1 activity raw data (signal) [1, 5]: -5
HDAC1 activity raw data (signal) [1, 6]: 15027
HDAC1 activity raw data (signal) [1, 7]: 19517
HDAC1 activity raw data (signal) [1, 8]: 121250
HDAC1 activity raw data (signal) [1, 9]: 94143
HDAC1 activity raw data (signal) [1, 10]: 426941
HDAC1 activity raw data (signal) [1, 11]: 417070
HDAC1 activity raw data (signal) [1, 12]: 888087
HDAC1 activity raw data (signal) [1, 13]: 854689
HDAC1 activity raw data (signal) [1, 14]: 5417
HDAC1 activity raw data (signal) [1, 15]: 8523
HDAC1 activity raw data (signal) [1, 16]: 47109
HDAC1 activity raw data (signal) [1, 17]: 41206
HDAC1 activity raw data (signal) [1, 18]: 257706
HDAC1 activity raw data (signal) [1, 19]: 221039
HDAC1 activity raw data (signal) [1, 20]: 716596
HDAC1 activity raw data (signal) [1, 21]: 664253
HDAC1 activity raw data (signal) [1, 22]: 1042274
HDAC1 activity raw data (signal) [1, 23]: 995234
HDAC2 activity raw data (signal) ([2]; Conc. 1.00E-05 M, t1): -452
HDAC2 activity raw data (signal) ([2]; Conc. 1.00E-05 M, t2): -1036
HDAC2 activity raw data (signal) ([2]; Conc. 1.11E-06 M, t1): 33890
HDAC2 activity raw data (signal) ([2]; Conc. 1.11E-06 M, t2): 38279
HDAC2 activity raw data (signal) ([2]; Conc. 1.23E-07 M, t1): 186095
HDAC2 activity raw data (signal) ([2]; Conc. 1.23E-07 M, t2): 182790
HDAC2 activity raw data (signal) ([2]; Conc. 1.37E-08 M, t1): 599694
HDAC2 activity raw data (signal) ([2]; Conc. 1.37E-08 M, t2): 552663
HDAC2 activity raw data (signal) ([2]; Conc. 1.52E-09 M, t1): 969892
HDAC2 activity raw data (signal) ([2]; Conc. 1.52E-09 M, t2): 886346
HDAC2 activity raw data (signal) ([2]; Conc. 3.33E-06 M, t1): 19780
HDAC2 activity raw data (signal) ([2]; Conc. 3.33E-06 M, t2): 13124
HDAC2 activity raw data (signal) ([2]; Conc. 3.70E-07 M, t1): 88233
HDAC2 activity raw data (signal) ([2]; Conc. 3.70E-07 M, t2): 84596
HDAC2 activity raw data (signal) ([2]; Conc. 4.12E-08 M, t1): 374430
HDAC2 activity raw data (signal) ([2]; Conc. 4.12E-08 M, t2): 356371
HDAC2 activity raw data (signal) ([2]; Conc. 4.57E-09 M, t1): 827090
HDAC2 activity raw data (signal) ([2]; Conc. 4.57E-09 M, t2): 782443
HDAC2 activity raw data (signal) ([2]; Conc. 5.08E-10 M, t1): 1119506
HDAC2 activity raw data (signal) ([2]; Conc. 5.08E-10 M, t2): 1036443
IC50 ([2]; figure legends, Supp. Table 1, read-out: HDAC2 IC50): 16.3 nM
HDAC8 activity raw data (signal) [3, 4]: 964380
HDAC8 activity raw data (signal) [3, 5]: 738285
HDAC8 activity raw data (signal) [3, 6]: 17568030
HDAC8 activity raw data (signal) [3, 7]: 18194235
HDAC8 activity raw data (signal) [3, 8]: 56084359
HDAC8 activity raw data (signal) [3, 9]: 53955732
HDAC8 activity raw data (signal) [3, 10]: 68600267
HDAC8 activity raw data (signal) [3, 11]: 68709597
HDAC8 activity raw data (signal) [3, 12]: 73629892
HDAC8 activity raw data (signal) [3, 13]: 68940487
HDAC8 activity raw data (signal) [3, 14]: 6524465
HDAC8 activity raw data (signal) [3, 15]: 5933628
HDAC8 activity raw data (signal) [3, 16]: 36548840
HDAC8 activity raw data (signal) [3, 17]: 38514186
HDAC8 activity raw data (signal) [3, 18]: 62692187
HDAC8 activity raw data (signal) [3, 19]: 60959948
HDAC8 activity raw data (signal) [3, 20]: 71596500
HDAC8 activity raw data (signal) [3, 21]: 73045422
HDAC8 activity raw data (signal) [3, 22]: 76849547
HDAC8 activity raw data (signal) [3, 23]: 76232042
